Test [1] deals with human recombinant CB1R (Homo sapiens (Human), UniProt P21554). In words: CB1 receptor binding assay ([3H]CP-55,940 displacement, HEK-293 membranes). The protocol: The compounds were evaluated in CB1R and CB2R binding assays using membranes from HEK-293 cells transfected with cDNAs encoding the human recombinant CB1R (Bmax=[…] protein) and human recombinant CB2R (Bmax=[…] protein) (Perkin-Elmer). […]. Compounds were tested following the procedure described by the cell membrane manufacturer. […] CB2R binding assays were carried out with two different buffers: incubation buffer (Tris-HCl, 50 mM; MgCl2, 5 mM; CaCl2 1 mM; BSA, 0.2% at pH 7.4) and washing buffer (Tris-HCl, 50 mM; NaCl 500 mM; BSA, 0.1% at pH 7.4). […] Assays were performed in duplicate and incubated for […] at 37° C. After the incubation, the assay mixture is filtered through 96 GF/C filter plates (Perkin Elmer #6005174) using Perkin Elmer Filtermate Harvester, and then washed four times with ice-cold washing buffer. The filters are dried for 1 hour at 50° C. and [^3H] trapped on filter counted for radioactivity in Perkin Elmer Microscint 20 cocktail (#6013329) using Perkin Elmer MicroBeta2 Reader. […] Data are analyzed and IC50 is calculated using GraphPad Prism 5 and the model “log(inhibitor) vs. response—Variable slope”. The binding affinity of the compounds is Determined by Using the Cheng and Prusoff Equation Ki=IC50/(1+[radioligand]/Kd).
human recombinant CB1R, sequence (P21554 whole entry): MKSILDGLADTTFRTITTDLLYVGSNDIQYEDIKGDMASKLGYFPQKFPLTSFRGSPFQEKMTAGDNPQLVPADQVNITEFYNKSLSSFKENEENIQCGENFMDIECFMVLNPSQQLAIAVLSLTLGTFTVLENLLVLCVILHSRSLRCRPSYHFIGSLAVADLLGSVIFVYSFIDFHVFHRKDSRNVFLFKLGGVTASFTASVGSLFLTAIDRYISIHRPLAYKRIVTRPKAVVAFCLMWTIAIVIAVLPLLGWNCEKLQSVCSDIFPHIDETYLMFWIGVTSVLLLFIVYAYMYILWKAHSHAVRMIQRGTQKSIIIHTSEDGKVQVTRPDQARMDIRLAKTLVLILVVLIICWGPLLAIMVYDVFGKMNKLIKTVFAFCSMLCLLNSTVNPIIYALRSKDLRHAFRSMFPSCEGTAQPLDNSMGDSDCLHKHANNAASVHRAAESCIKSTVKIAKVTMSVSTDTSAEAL

Test [2] has as its target human CB2 receptor (Homo sapiens (Human), UniProt P34972). In words: CB2 receptor binding assay ([3H]CP-55,940 displacement, HEK-293 membranes). The protocol:
The compounds were evaluated in CB1R and CB2R binding assays using membranes from HEK-293 cells transfected with cDNAs encoding the human recombinant CB1R (Bmax=[…] protein) and human recombinant CB2R (Bmax=[…] protein) (Perkin-Elmer). […] Compounds were tested following the procedure described by the cell membrane manufacturer. […] CB2R binding assays were carried out with two different buffers: incubation buffer (Tris-HCl, 50 mM; MgCl2, 5 mM; CaCl2 1 mM; BSA, 0.2% at pH 7.4) and washing buffer (Tris-HCl, 50 mM; NaCl 500 mM; BSA, 0.1% at pH 7.4). […] Assays were performed in duplicate and incubated for […] at 37° C. […] Data are analyzed and IC50 is calculated using GraphPad Prism 5 and the model “log(inhibitor) vs. response—Variable slope”. The binding affinity of the compounds is Determined by Using the Cheng and Prusoff Equation Ki=IC50/(1+[radioligand]/Kd).

Where [3] appears, read: membranes of HEK-293 cells with human recombinant CB1R, [3H]CP-55,940, class symbols, read-out: CB1 IC50.
[4] abbreviates: membranes of HEK-293 cells with human recombinant CB2R, [3H]CP-55,940, class symbols, read-out: CB2 IC50.
The mark [5] stands for this setting: membranes of HEK-293 cells with human recombinant CB1R, [3H]CP-55,940, read-out: CB1 IC50.
Where [6] appears, read: membranes of HEK-293 cells with human recombinant CB2R, [3H]CP-55,940, read-out: CB2 IC50.

Where two headings read alike, the source gives them in different places. Bounds are passed on as bounds.

human CB2 receptor, sequence (P34972 whole entry): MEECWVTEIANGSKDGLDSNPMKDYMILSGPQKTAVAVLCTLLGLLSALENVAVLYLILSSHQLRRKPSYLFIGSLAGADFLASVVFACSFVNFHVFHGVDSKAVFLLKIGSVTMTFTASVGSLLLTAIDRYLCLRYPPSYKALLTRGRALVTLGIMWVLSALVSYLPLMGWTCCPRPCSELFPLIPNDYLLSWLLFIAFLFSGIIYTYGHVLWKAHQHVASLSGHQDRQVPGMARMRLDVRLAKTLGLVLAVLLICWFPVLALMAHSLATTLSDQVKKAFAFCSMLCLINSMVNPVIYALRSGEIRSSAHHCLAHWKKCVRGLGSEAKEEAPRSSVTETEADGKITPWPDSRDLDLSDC

As to `CC(NC(=O)c1c(O)c2cc(Br)cnc2n(Cc2ccc(F)cc2)c1=O)c1ccc(F)cc1` (centres unmarked) [Compound 1, 6-bromo-1-(4-fluorobenzyl)-N-(1-(4-fluorophenyl)ethyl)-4-hydroxy-2-oxo-1,2-dihydro-1,8-naphthyridine-3-carboxamide], the values for the IC50 in test [1] (setting [3]) and in test [2] were > 1000 nM and 100 to 999 nM, respectively. With `O=C(NC1CC2(CCC2)C1)c1c(O)c2cc(Br)cnc2n(Cc2ccc(F)cc2)c1=O` [Compound 2, 6-bromo-1-(4-fluorobenzyl)-4-hydroxy-2-oxo-N-(spiro[3.3]heptan-2-yl)-1,2-dihydro-1,8-naphthyridine-3-carboxamide], the IC50 in test [1] (setting [3]) was > 1000 nM; in test [2] it was 100 to 999 nM. In the same order, the values of `CC(NC(=O)c1c(O)c2cc(Br)cnc2n(Cc2ccc(F)cc2)c1=O)c1ccc(C#N)cc1` (centres unmarked) [Compound 3, 6-bromo-N-(1-(4-cyanophenyl)ethyl)-1-(4-fluorobenzyl)-4-hydroxy-2-oxo-1,2-dihydro-1,8-naphthyridine-3-carboxamide] are > 1000 nM and 100 to 999 nM. As to `O=C(NC1CC2(CCC2)C1)c1c(O)c2cc(Br)cnc2n(CCN2CCOCC2)c1=O` [Compound 4, 6-bromo-4-hydroxy-1-(2-morpholinoethyl)-2-oxo-N-(spiro[3.3]heptan-2-yl)-1,2-dihydro-1,8-naphthyridine-3-carboxamide], the IC50 in test [2] is 100 to 999 nM. Regarding `O=C(NC12CC(C1)C2)c1c(O)c2cc(-c3ccc(OC(F)F)cc3)cnc2n(CCN2CCOCC2)c1=O` [Compound 12, N-(bicyclo[1.1.1]pentan-1-yl)-6-(4-(difluoromethoxy)phenyl)-4-hydroxy-1-(2-morpholinoethyl)-2-oxo-1,2-dihydro-1,8-naphthyridine-3-carboxamide], the concentration for half-maximal inhibition (IC50) in test [1] (setting [3]) and in test [2] (setting [4]) was > 1000 nM in each case. Consider `O=C(NC1CC2(CCC2)C1)c1c(O)c2cc(-c3ccccc3)cnc2n(CCN2CCOCC2)c1=O` [Compound 14, 4-hydroxy-1-(2-morpholinoethyl)-2-oxo-6-phenyl-N-(spiro[3.3]heptan-2-yl)-1,2-dihydro-1,8-naphthyridine-3-carboxamide], for which the IC50 in test [2] (setting [4]) is < 100 nM. Take `CC1CCC(NC(=O)c2c(O)c3cc(-c4ccc(C5CC5)cc4)cnc3n(CCN3CCOCC3)c2=O)CC1` (centres unmarked) [Compound 17, 6-(4-cyclopropylphenyl)-4-hydroxy-N-(4-methylcyclohexyl)-1-(2-morpholinoethyl)-2-oxo-1,2-dihydro-1,8-naphthyridine-3-carboxamide]: the IC50 in test [1] (setting [3]) is > 1000 nM; in test [2] it was 100 to 999 nM. With `CC1CCC(NC(=O)c2c(O)c3cc(-c4ccc(OC(C)C)cc4)cnc3n(CCN3CCOCC3)c2=O)CC1` (centres unmarked) [Compound 18, 4-hydroxy-6-(4-isopropoxyphenyl)-N-(4-methylcyclohexyl)-1-(2-morpholinoethyl)-2-oxo-1,2-dihydro-1,8-naphthyridine-3-carboxamide], the half-inhibitory concentration (IC50) in test [1] (setting [3]) and in test [2] (setting [4]) was > 1000 nM in each case. Regarding `CC(NC(=O)c1c(O)c2cc(-c3ccc(C#N)cn3)cnc2n(CCN2CCOCC2)c1=O)c1ccc(F)cc1` (centres unmarked) [Compound 21, 6-(5-cyanopyridin-2-yl)-N-(1-(4-fluorophenyl)ethyl)-4-hydroxy-1-(2-morpholinoethyl)-2-oxo-1,2-dihydro-1,8-naphthyridine-3-carboxamide], the half-maximal inhibitory concentration (IC50) was > 1000 nM in test [1] (setting [3]) and 100 to 999 nM in test [2].

Consider `N#Cc1ccc(-c2cnc3c(c2)c(O)c(C(=O)NC2CC4(CCC4)C2)c(=O)n3CCN2CCOCC2)nc1` [Compound 22, 6-(5-cyanopyridin-2-yl)-4-hydroxy-1-(2-morpholinoethyl)-2-oxo-N-(spiro[3.3]heptan-2-yl)-1,2-dihydro-1,8-naphthyridine-3-carboxamide], for which the IC50 was > 1000 nM in test [1] (setting [3]) and 100 to 999 nM in test [2].

On to `O=C(NC1CC2(CCC2)C1)c1c(O)c2cc(-c3ccc(F)cc3)ccc2n(CCN2CCOCC2)c1=O` [Compound 23, 6-(4-fluorophenyl)-4-hydroxy-1-(2-morpholinoethyl)-2-oxo-N-(spiro[3.3]heptan-2-yl)-1,2-dihydroquinoline-3-carboxamide], for which the IC50 was 100 to 999 nM in test [1] and < 100 nM in test [2] (setting [4]).

Take `CC(NC(=O)c1c(O)c2cc(-c3ccc(C#N)cn3)cnc2n(Cc2ccc(F)cc2)c1=O)c1ccc(C#N)cc1` (centres unmarked) [Compound 24, N-(1-(4-cyanophenyl)ethyl)-6-(5-cyanopyridin-2-yl)-1-(4-fluorobenzyl)-4-hydroxy-2-oxo-1,2-dihydro-1,8-naphthyridine-3-carboxamide]: the half-inhibitory concentration (IC50) in test [1] (setting [3]) and in test [2] (setting [4]) was > 1000 nM in each case. For the compound `O=C(NC1CC2(CCC2)C1)c1c(O)c2cc(-c3ccc(OC(F)F)cn3)cnc2n(CCN2CCOCC2)c1=O` [Compound 25, 6-(5-(difluoromethoxy)pyridin-2-yl)-4-hydroxy-1-(2-morpholinoethyl)-2-oxo-N-(spiro[3.3]heptan-2-yl)-1,2-dihydro-1,8-naphthyridine-3-carboxamide], the IC50 in test [1] (setting [3]) and in test [2] (setting [4]) was > 1000 nM in each case. For the compound `COc1ccc(-c2cnc3c(c2)cc(C(=O)NC2CCC(C)(C)CC2)c(=O)n3CCN2CCOCC2)cc1` [Compound 26, N-(4,4-dimethylcyclohexyl)-6-(4-methoxyphenyl)-1-(2-morpholinoethyl)-2-oxo-1,2-dihydro-1,8-naphthyridine-3-carboxamide], the IC50 is > 10000 nM in test [1] (setting [5]) and 2.2 nM in test [2] (setting [6]). The corresponding values for `COc1ccc(-c2cnc3c(c2)cc(C(=O)NC2CCC(F)(F)CC2)c(=O)n3CCN2CCOCC2)cc1` [Compound 27, N-(4,4-difluorocyclohexyl)-6-(4-methoxyphenyl)-1-(2-morpholinoethyl)-2-oxo-1,2-dihydro-1,8-naphthyridine-3-carboxamide] are > 10000 nM and 2 nM. In test [2], `O=C(NC1CC2(CCC2)C1)c1cc2cc(-c3ccc(OC(F)F)cn3)cnc2n(Cc2ccc(F)cc2)c1=O` [Compound 43, 6-(5-(difluoromethoxy)pyridin-2-yl)-1-(4-fluorobenzyl)-2-oxo-N-(spiro[3.3]heptan-2-yl)-1,2-dihydro-1,8-naphthyridine-3-carboxamide] came in with an IC50 of 100 to 999 nM. `C[C@H](NC(=O)c1cc2cc(-c3ccc(OC(F)F)cn3)cnc2n(CCN2CCOCC2)c1=O)c1ccc(F)cc1` [Compound 49, (S)-6-(5-(difluoromethoxy)pyridin-2-yl)-N-(1-(4-fluorophenyl)ethyl)-1-(2-morpholinoethyl)-2-oxo-1,2-dihydro-1,8-naphthyridine-3-carboxamide]: in test [2] (setting [4]), the IC50 was in the range of 100 to 999 nM.

Regarding `O=C(NC12CC(C1)C2)c1c(O)c2cc(-c3ccc(F)cc3)cnc2n(CCN2CC3CC(C2)O3)c1=O` [Compound 165, 1-(2-(6-oxa-3-azabicyclo[3.1.1]heptan-3-yl)ethyl)-N-(bicyclo[1.1.1]pentan-1-yl)-6-(4-fluorophenyl)-4-hydroxy-2-oxo-1,2-dihydro-1,8-naphthyridine-3-carboxamide], the IC50 in test [2] (setting [4]) was > 1000 nM. Regarding `O=C(NC12CC(C1)C2)c1c(O)c2cc(-c3ccc(F)cc3)cnc2n(CCN2C3COCC2C3)c1=O` [Compound 166, 1-(2-(3-oxa-6-azabicyclo[3.1.1]heptan-6-yl)ethyl)-N-(bicyclo[1.1.1]pentan-1-yl)-6-(4-fluorophenyl)-4-hydroxy-2-oxo-1,2-dihydro-1,8-naphthyridine-3-carboxamide], the IC50 in test [2] (setting [4]) is > 1000 nM. The same measure, in the same setting: to `COc1c(C(=O)NC23CC(C2)C3)c(=O)n(CCN2CCOCC2)c2ncc(-c3ccc(F)cc3)cc12` [Compound 173, N-(bicyclo[1.1.1]pentan-1-yl)-6-(4-fluorophenyl)-4-methoxy-1-(2-morpholinoethyl)-2-oxo-1,2-dihydro-1,8-naphthyridine-3-carboxamide] belongs > 1000 nM. On to `COc1ccc(-c2cnc3c(c2)c(OC)c(C(=O)NC24CC(C2)C4)c(=O)n3CCN2CCOCC2)cc1` [Compound 177, N-(bicyclo[1.1.1]pentan-1-yl)-4-methoxy-6-(4-methoxyphenyl)-1-(2-morpholinoethyl)-2-oxo-1,2-dihydro-1,8-naphthyridine-3-carboxamide], for which the IC50 in test [2] (setting [4]) was > 1000 nM.

On to `COc1ccc(-c2cnc3c(c2)c(OC(C)C)c(C(=O)NC24CC(C2)C4)c(=O)n3CCN2CCOCC2)cc1` [Compound 180, N-(bicyclo[1.1.1]pentan-1-yl)-4-isopropoxy-6-(4-methoxyphenyl)-1-(2-morpholinoethyl)-2-oxo-1,2-dihydro-1,8-naphthyridine-3-carboxamide], for which the half-inhibitory concentration (IC50) in test [2] (setting [4]) was > 1000 nM.

What is called IC50 is the point on the concentration scale where inhibition reaches its midpoint.

These data come from patent US11564928B1, “Cannabinoid receptor type 2 (CB2) modulators and uses thereof” (Teon Therapeutics, Inc., priority 2020, dated 2023).
